The nature of series [1]: ABTS free radical scavenging assay. The arrangement: IC50 values in ABTS assay (Table 2): unit not given beside the values. The settings on record: for free radical scavenging potential in ABTS assay: at 200 µg/mL; for IC50 value in ABTS assay / IC50 values in ABTS assay (Table 2): calculated by linear regression equation; for IC50 values in ABTS assay (Table 2): unit not given.

A short description of series [2]: DPPH free radical scavenging assay. The note with it: for IC50 in DPPH assay: calculated by linear regression equation; for antioxidant potential (free radical scavenging) in DPPH assay: at 200 µg/mL.
Experimental: The DPPH assay was performed according to the protocol of Ghasemi et al.[40] with little modifications. For DPPH solution, 3 mg of DPPH powder was dissolved in 100 mL methanol. […] Different serial dilutions (25, 50, 100, and 200 μg/mL) were prepared. The 3 mL DPPH methanolic solution was added to 400 μL compounds methanolic solution. The mixture was continuously shaken and stored at room temperature under shade for exactly 30 min. The absorbance of reaction mixture was measured at 515 nm spectrophotometrically. […] The experiment was repeated three times and percentage inhibition was calculated as follows.
A further series has as its system Klebsiella pneumoniae. Nature of the series: Agar well diffusion method. The settings on record: for zone of inhibition at 600 µg/mL: 24 h; for zone of inhibition: compound solution 0.6 mg/mL, 40 μL per well, 24 h at 37 °C. On the technique in general: In agar diffusion tests the substance spreads into inoculated agar from a disc or well.
A further series relates to brine shrimp nauplii. In words: Brine shrimp lethality assay (BSLA). The note with it: 24 h; for mortality at 200 µg/mL: read-out: mortality rate / cytotoxic effect in brine shrimp lethality assay; for mortality rate / cytotoxic effect in brine shrimp lethality assay: at highest 200 µg/mL concentration.
For a further series, the system named is Xanthomonas. Nature of the series: Agar well diffusion method. It is filed as cell-based. The note with it: for zone of inhibition: compound solution 0.6 mg/mL, 40 μL per well, 24 h at 37 °C.
For the next series, the system named is E. coli. Nature of the series: Agar well diffusion method. The note with it: compound solution 0.6 mg/mL, 40 μL per well, 24 h at 37 °C. It is filed as cell-based, Escherichia coli. Here is the method: (§1) Allowed it to solidify for 15 min. […] The experiment was run in triplicates.
The subject of a further series is Salmonella. In words: Agar well diffusion method. The series is classed as cell-based. The settings on record: compound solution 0.6 mg/mL, 40 μL per well, 24 h at 37 °C. As to the method: as §1
The subject of a further series is S. aureus. In words: Agar well diffusion method. The series is classed as cell-based. The note with it: for zone of inhibition: S. aureus, compound solution 0.6 mg/mL, 40 μL per well, 24 h at 37 °C. As to the method:
as §1

Another series relates to P. aeruginosa. Nature of the series: Agar well diffusion method. The series is classed as cell-based. The settings on record: compound solution 0.6 mg/mL, 40 μL per well, 24 h at 37 °C. As to the method: as §1

Values after ≈ are worked out from the molar mass of the structure shown.

Experimental for Klebsiella pneumoniae: (§2) Antibacterial activity of compounds was determined by agar well diffusion method[42]. Antibacterial activity of different compounds was tested against seven clinical pathogens (Klebsiella pneumonia, Escherichia coli, Xanthomonas, S. aureus, Salmonella, P. aeruginosa and S. epidermitis). The nutrient agar medium was prepared by dissolving 6 g agar nutrient powder in 250 mL distilled water. The media was autoclaved and poured into pre-labeled petri plates under sterile condition. Then rinsed these plates with bacterial suspension before solidification. Allowed it to solidify for 15 min. Compound solution of 0.6 mg/mL was used. Cefixime with 1 mg/1 mL was used as positive control whereas DMSO was used as negative control. After solidification made wells of 6 mm using sterile cork borer. Each well was sealed with 20 μL of agar. After sealing 40 μL of each compound solution was added in well. The petri plates were sealed by para-film and kept in incubator for 24 h at 37 °C. The experiment was run in triplicates. The zone of inhibition of bacterial growth was measured with scale in mm.
Experimental for Xanthomonas: as §2

With `O=C1O[C@H]([C@@H](O)CO)C(O)=C1O` [Ascorbic acid, reference compound], in [1], the “free radical scavenging potential in ABTS assay” value is on record as 90%, the “IC50 value in ABTS assay” value is given as 14.77 µg/mL (≈ 83.9 µM) and the “IC50 values in ABTS assay (Table 2)” value was 14.77. Besides, in series [2], the “IC50 in DPPH assay” value was 97.065 µg/mL (≈ 551 µM).
As a reminder, the zone of inhibition is the extent of the growth-free halo in a diffusion test. As to `O=c1c(O[C@@H]2O[C@H](CO)[C@@H](O)[C@H](O)[C@H]2O)c(-c2ccc(O)cc2)oc2cc(O)cc(O)c12` [Astragalin], in [1], the “free radical scavenging potential in ABTS assay” value turned out to be 78% and the “IC50 values in ABTS assay (Table 2)” value is 49.41. Also, the zone of inhibition at 600 µg/mL with Klebsiella pneumoniae came to 26 mm. The mortality at 200 µg/mL in the series with brine shrimp nauplii was found to be 55%. Moreover, in series [2], the “IC50 in DPPH assay” value is given as 100.9 µg/mL (≈ 225 µM).
`COc1ccc2c3c([nH]c2c1)C(C)=NCC3` [Harmaline]: in the series with Xanthomonas (24 h), the zone of inhibition at 600 µg/mL stood at 23 mm. Also, in series [1], the “free radical scavenging potential in ABTS assay” value is given as 80.71%, the “IC50 value in ABTS assay” value was 15.79 µg/mL (≈ 73.7 µM) and the “IC50 values in ABTS assay (Table 2)” value is 15.79. The mortality at 200 µg/mL in the series on brine shrimp nauplii turned out to be 80%. Moreover, the “IC50 in DPPH assay” value in [2] is listed as 94.84 µg/mL (≈ 443 µM).
In the case of `COc1ccc2c(c1)[nH]c1c(C)nccc12` [Harmine], in the series with brine shrimp nauplii, the mortality at 200 µg/mL is 65%.
As to `O=C(c1ccc(O)cc1)c1c(O)cc(O)c([C@@H]2O[C@H](CO)[C@@H](O)[C@H](O)[C@H]2O)c1O` [Irriflophenone-3-C-β-D-glucopyranoside], the zone of inhibition in the series with Xanthomonas is 19 mm; with E. coli, 34 mm; in the series with Salmonella, 31 mm; with S. aureus, 28 mm; with P. aeruginosa it was 8 mm; with Klebsiella pneumoniae it was 30 mm. Besides, the “free radical scavenging potential in ABTS assay” value in [1] stood at 71%. Besides, the “IC50 value in ABTS assay” value in [1] is 112.63 µg/mL (≈ 276 µM). Further, in series [1], the “IC50 values in ABTS assay (Table 2)” value is 112.6. Also, in the series with brine shrimp nauplii, the “mortality rate / cytotoxic effect in brine shrimp lethality assay” value was found to be 65%. Also, the “IC50 in DPPH assay” value in [2] is reported as 125 µg/mL (≈ 306 µM).
As for `O=c1c2cc(O)c(O)cc2oc2c([C@@H]3O[C@H](CO)[C@@H](O)[C@H](O)[C@H]3O)c(O)cc(O)c12` [Isomangiferrin], the zone of inhibition with S. aureus was found to be 32 mm; in the series with P. aeruginosa, 5 mm; with Klebsiella pneumoniae it was 28 mm. The “free radical scavenging potential in ABTS assay” value in series [1] was 62%. Moreover, the “IC50 value in ABTS assay” value in series [1] is 124.19 µg/mL (≈ 294 µM). Also, the “IC50 values in ABTS assay (Table 2)” value in series [1] is 124.2. Further, the “mortality rate / cytotoxic effect in brine shrimp lethality assay” value in the series on brine shrimp nauplii is 55%. The “antioxidant potential (free radical scavenging) in DPPH assay” value in [2] came to 78.32%. In addition, the entries for the “IC50 in DPPH assay” value in series [2] and in series [2] (listed as isomangiferrin) were 93.86 µg/mL (≈ 222 µM) and 93.85 µg/mL (≈ 222 µM), respectively.
In the case of `O=c1c2cc(O)c(O)cc2oc2cc(O)c([C@@H]3O[C@H](CO)[C@@H](O)[C@H](O)[C@H]3O)c(O)c12` [Mangiferrin], the zone of inhibition at 600 µg/mL in the series with E. coli (Escherichia coli) worked out at 15 mm; with Salmonella, 28 mm; in the series with P. aeruginosa (Pseudomonas aeruginosa), 10 mm; in the series with Klebsiella pneumoniae it was 32 mm. In addition, the “free radical scavenging potential in ABTS assay” value in series [1] was determined as 73%. Also, the “IC50 value in ABTS assay” value in [1] was 110.33 µg/mL (≈ 261 µM). In addition, the “IC50 values in ABTS assay (Table 2)” value in series [1] is reported as 110.3. In the series on brine shrimp nauplii, the mortality at 200 µg/mL stood at 50%. In series [2], the “IC50 in DPPH assay” value is 110.4 µg/mL (≈ 261 µM).
For the molecule `CN1CCC[C@H]1c1cccnc1` [Nicotine, reference compound], in the series with brine shrimp nauplii, the “LD50 value in brine shrimp lethality assay” value is recorded as 30.69 µg/mL and the mortality at 200 µg/mL amounted to 100%.
In turn, `O=c1c2ccccc2nc2n1CC[C@@H]2O` [PH-HM 17, vasicinone] came in with a zone of inhibition in the series with Xanthomonas of 22 mm. Further, the “IC50 values in ABTS assay (Table 2)” value in series [1] was 101.6. In [2], the “IC50 in DPPH assay” value is 124.9 µg/mL (≈ 618 µM).
`O=C(/C=C/c1ccc(O)cc1)OC[C@H]1O[C@@H](Oc2c(-c3ccc(O)cc3)oc3cc(O)cc(O)c3c2=O)[C@H](O)[C@@H](O)[C@@H]1O` [Tiliroside]: in series [1], the “free radical scavenging potential in ABTS assay” value amounted to 70%, the “IC50 value in ABTS assay” value is reported as 101.64 µg/mL (≈ 171 µM) and the “IC50 values in ABTS assay (Table 2)” value was 67.53. Besides, the zone of inhibition at 600 µg/mL in the series with Klebsiella pneumoniae is 24 mm. In the series with brine shrimp nauplii, the “LD50 value in brine shrimp lethality assay” value is given as 73.59 µg/mL and the mortality at 200 µg/mL was determined as 95%. For the same molecule, in [2], the “antioxidant potential (free radical scavenging) in DPPH assay” value is listed as 77.77% and the “IC50 in DPPH assay” value was 78.77 µg/mL (≈ 132 µM). Also, the “IC50 in DPPH assay” value in series [2] (listed as tiliroside) is given as 78.77 µg/mL (≈ 132 µM).
With `O[C@H]1CCN2Cc3ccccc3N=C12` [Vasicine], the zone of inhibition at 600 µg/mL in the series with S. aureus (Staphylococcus aureus, 24 h) came out at 22 mm. In addition, in series [1], the “free radical scavenging potential in ABTS assay” value was 69%, the “IC50 value in ABTS assay” value is given as 114.82 µg/mL (≈ 610 µM) and the “IC50 values in ABTS assay (Table 2)” value was 114.8. Further, the mortality at 200 µg/mL in the series with brine shrimp nauplii was determined as 55%. In series [2], the “IC50 in DPPH assay” value is on record as 137.7 µg/mL (≈ 732 µM).
With “Quercitin-3-O rhamnoside [Quercitin-3-O-rhamnoside]”, the zone of inhibition in the series on Klebsiella pneumoniae is on record as 22 mm. The “IC50 in DPPH assay” value was 185.27 µg/mL in series [2] and 185.3 µg/mL in [2] (listed as Quercetin-3-O- rahmnoside).

The record behind these values is PMC10866962, “Molecular docking of bioactive compounds extracted and purified from selected medicinal plant species against covid-19 proteins and in vitro evaluation” (Scientific Reports, 2024).
